From patent US20220089550A1, “CRYSTALLINE FORMS OF (S)-2-(7-CYANO-1H-BENZIMIDAZOL-1 YL)-N-{1-[4-(1-CYANO-1-METHYLETHYL)PHENYL]ETHYL}ACETAMIDE” (NEOMED INSTITUTE - INSTITUT NEOMED, priority 2019, published 2022)
Converted amounts (≈) assume the structure as drawn.

Columns and labels:
[1] = Stability tests for Form A (temperature, relative humidity, compression; XRPD); assay type: physicochemical
Experimental: Experiments were conducted to evaluate the stability of Form A under various temperature, relative humidity and compression conditions.

[2] = Thermal stability (TGA, variable temperature XRPD); assay type: physicochemical
Experimental: Crystals of Form C can be converted (3) to crystals of Form A. For example, crystals of Form C are converted to crystals of Form A by heating the crystals of Form C to 155° C. under nitrogen. Furthermore, crystals of Form C can be converted (5) to crystals of Form F. For example, crystals of Form C are converted to crystals of Form F by heating to 136° C. under nitrogen. […] Further heating of this sample generates a mixture of crystals of Form A and Form F.
Compound 1 appears to be chemically stable up to the decomposition temperature of about 250° C. […] The solid-state stability of the crystalline forms is compared by evaluating the relative “thermodynamic stability” of the crystalline forms and the interconversion between crystalline forms upon heating or when slurrying.
TGA was conducted for each crystalline form using a TA Q500/Q5000 TGA from TA Instruments. For each analysis, the TGA cell/sample chamber was purged with ultra-high purity nitrogen gas. The sample crystal was placed into the bottom of an open aluminium pan. […] The weight was plotted versus the measured sample temperature. The data were reported in % of the initial weight. The TGA thermograms for Forms A to F were obtained and can be seen at FIGS. 7 to 12.

[3] = Slurry conversion of Form A/Form E and Form A/Form F mixtures in IPA; assay type: physicochemical; conditions: equal-mass mixtures with Form E or Form F in pre-saturated IPA, room temperature, 48 h
Experimental: Excess amounts of crystals of Form A were added to 2 mL of IPA. The mixture was magnetically stirred at a speed of 750 rpm at room temperature overnight to obtain a saturated solution. The saturated solution was filtered on a PTFE membrane (0.45 μm) to remove the excess solids.
(§1) An equal-mass physical mixture of crystals of Form A and Form E (6 mg of each Form) was added into 0.5 mL of the pre-saturated IPA solution and magnetically stirred at a speed of 750 rpm for 48 h. Solids were isolated from the suspension by centrifugation and an XRPD test was performed (shown at FIG. 19(b)).
as §1, with “Similarly, an” for “An”, “F” for “E”, “19(c)).” for “19(b)).”
In the case of both mixtures, only crystals of Form A were isolated after stirring for 48 h.

[4] = Approximate solubility of crystals of Form A at room temperature; assay type: physicochemical; conditions: thermodynamic from solid
Experimental: Approximately 2 mg solids were added into a 3-mL glass vial. Solvents as listed in Table 7 were then added stepwise into the vials until the solids were dissolved or a total volume of 1 mL was reached. The results are summarized in Table 7, and were used to guide solvent selection in the polymorph screening.

VR1 receptor = VR1 receptor (Homo sapiens, UniProt Q8NER1); conditions: whole cells, intracellular Ca2+ imaging, assay of WO 2008018827; read-out: IC50, antagonist of capsaicin responses; cited from earlier work
Chain of VR1 receptor (Q8NER1 whole entry): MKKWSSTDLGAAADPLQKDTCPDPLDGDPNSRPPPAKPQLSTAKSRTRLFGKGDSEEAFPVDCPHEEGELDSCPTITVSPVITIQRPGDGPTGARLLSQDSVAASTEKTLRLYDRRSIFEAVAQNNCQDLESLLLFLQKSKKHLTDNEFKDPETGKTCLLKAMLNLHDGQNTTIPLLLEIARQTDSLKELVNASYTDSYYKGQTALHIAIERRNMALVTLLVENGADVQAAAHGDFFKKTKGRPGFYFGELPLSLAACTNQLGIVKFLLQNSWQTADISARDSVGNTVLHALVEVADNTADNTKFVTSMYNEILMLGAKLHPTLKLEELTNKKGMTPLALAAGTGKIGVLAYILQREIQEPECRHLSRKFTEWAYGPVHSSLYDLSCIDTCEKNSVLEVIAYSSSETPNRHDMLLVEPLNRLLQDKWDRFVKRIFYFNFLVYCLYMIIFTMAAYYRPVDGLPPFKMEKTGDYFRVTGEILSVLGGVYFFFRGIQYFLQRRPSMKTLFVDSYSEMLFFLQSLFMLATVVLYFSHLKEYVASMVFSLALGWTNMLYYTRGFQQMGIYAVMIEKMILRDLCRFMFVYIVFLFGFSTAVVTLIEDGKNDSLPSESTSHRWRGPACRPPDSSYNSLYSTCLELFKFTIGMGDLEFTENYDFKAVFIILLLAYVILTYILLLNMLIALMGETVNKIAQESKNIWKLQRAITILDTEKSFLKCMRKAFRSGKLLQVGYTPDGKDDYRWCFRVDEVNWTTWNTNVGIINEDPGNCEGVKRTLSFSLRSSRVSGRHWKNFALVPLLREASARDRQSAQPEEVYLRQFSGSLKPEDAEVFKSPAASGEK

C[C@H](NC(=O)Cn1cnc2cccc(C#N)c21)c1ccc(C(C)(C)C#N)cc1 [Form A, (S)-2-(7-Cyano-1H-benzimidazol-1-yl)-N-{1-[4-(1-cyano-1-methylethyl)phenyl]ethyl} acetamide]
Effect of grinding on XRPD ([1]; aggressive grinding for 2 minutes): minor decrease in the relative intensity of the peaks | Stability of the crystal structure (XRPD) on stressed samples ([1]; various temperature, relative humidity and compression conditions, compared to Form A as synthesized): crystalline structure remained generally similar | Temperature up to which the crystalline form is stable ([2]; heating, variable temperature XRPD / DSC): about 167.9 °C | Thermodynamic stability by slurry conversion [3]: thermodynamically stable form at room temperature among the three anhydrate Forms | solubility ([4]; 25 °C, organic solvent or mixture, 1,4-Dioxane, room temperature): > 36 mg/mL | solubility ([4]; 25 °C, organic solvent or mixture, 2-MeTHF, room temperature): > 36 mg/mL | solubility ([4]; 25 °C, organic solvent or mixture, ACN, room temperature): > 40 mg/mL | solubility ([4]; 25 °C, organic solvent or mixture, Acetone, room temperature): > 38 mg/mL | solubility ([4]; 25 °C, organic solvent or mixture, Anisole, room temperature): 7.3 to 22 mg/mL (≈ 19.7 to 59.2 mM) | solubility ([4]; 25 °C, organic solvent or mixture, CHCl3, room temperature): > 42 mg/mL | solubility ([4]; 25 °C, organic solvent or mixture, DCM, room temperature): > 40 mg/mL | solubility ([4]; 25 °C, organic solvent or mixture, DMAc, room temperature): > 36 mg/mL | solubility ([4]; 25 °C, organic solvent or mixture, DMSO, room temperature): > 44 mg/mL | solubility ([4]; 25 °C, organic solvent or mixture, EtOAc, room temperature): 22 to 44 mg/mL (≈ 59.2 to 118 mM) | solubility ([4]; 25 °C, organic solvent or mixture, EtOH, room temperature): > 40 mg/mL | solubility ([4]; 25 °C, organic solvent or mixture, IPA, room temperature): 7 to 21 mg/mL (≈ 18.8 to 56.5 mM) | solubility ([4]; 25 °C, organic solvent or mixture, IPAc, room temperature): 6.7 to 20 mg/mL (≈ 18 to 53.8 mM) | solubility ([4]; 25 °C, organic solvent or mixture, MEK, room temperature): > 40 mg/mL | solubility ([4]; 25 °C, organic solvent or mixture, MIBK, room temperature): 18 to 36 mg/mL (≈ 48.5 to 96.9 mM) | solubility ([4]; 25 °C, organic solvent or mixture, MTBE, room temperature): < 1.8 mg/mL | solubility ([4]; 25 °C, organic solvent or mixture, THF, room temperature): > 40 mg/mL | solubility ([4]; 25 °C, organic solvent or mixture, Toluene, room temperature): < 2.1 mg/mL | solubility ([4]; 25 °C, organic solvent or mixture, n-Heptane, room temperature): < 2.2 mg/mL | solubility ([4]; organic solvent or mixture, MeOH, room temperature (25° C.±2° C.)): > 42 mg/mL | solubility ([4]; water, 25 °C, H2O, room temperature): < 2.1 mg/mL

C[C@H](NC(=O)Cn1cnc2cccc(C#N)c21)c1ccc(C(C)(C)C#N)cc1 [Compound 1, (S)-2-(7-Cyano-1H-benzimidazol-1-yl)-N-{1-[4-(1-cyano-1-methylethyl)phenyl]ethyl}acetamide]
Decomposition temperature (chemically stable up to) ([2]; TGA, 10° C./min, nitrogen): about 250 °C | IC50 (VR1 receptor): 41 to 49 nM
